Here are results for 1 compound from PMC2720952 (BMC Evolutionary Biology, 2009).

Test [1] has as its target AaxC (CT374) from C. trachomatis D/UW-3 (Chlamydia trachomatis, UniProt O84379). Conditions: 1 mM L-arginine, E medium pH 5, 37 °C, 20 min; AaxB co-expressed; labelled compound.
The next test deals with C. pneumoniae AaxC (Chlamydia pneumoniae, UniProt Q9Z6M8). Conditions: 1 mM L-arginine, E medium pH 5, 37 °C, 20 min; AaxB co-expressed; labelled compound.
Chain of C. pneumoniae AaxC (Q9Z6M8 whole entry): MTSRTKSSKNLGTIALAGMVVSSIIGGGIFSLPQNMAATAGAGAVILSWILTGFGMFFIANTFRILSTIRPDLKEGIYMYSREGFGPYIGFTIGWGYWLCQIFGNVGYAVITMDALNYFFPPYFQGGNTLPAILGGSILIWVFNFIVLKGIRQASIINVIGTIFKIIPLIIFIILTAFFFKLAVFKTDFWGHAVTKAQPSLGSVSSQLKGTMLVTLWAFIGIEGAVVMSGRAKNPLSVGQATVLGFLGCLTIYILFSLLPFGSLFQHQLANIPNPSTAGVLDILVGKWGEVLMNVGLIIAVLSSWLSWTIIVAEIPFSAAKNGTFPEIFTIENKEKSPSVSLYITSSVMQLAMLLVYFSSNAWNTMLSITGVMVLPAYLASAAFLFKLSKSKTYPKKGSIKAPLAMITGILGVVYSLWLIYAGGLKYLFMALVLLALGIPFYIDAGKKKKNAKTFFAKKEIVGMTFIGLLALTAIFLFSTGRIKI

Chain of AaxC (CT374) from C. trachomatis D/UW-3 (O84379 whole entry): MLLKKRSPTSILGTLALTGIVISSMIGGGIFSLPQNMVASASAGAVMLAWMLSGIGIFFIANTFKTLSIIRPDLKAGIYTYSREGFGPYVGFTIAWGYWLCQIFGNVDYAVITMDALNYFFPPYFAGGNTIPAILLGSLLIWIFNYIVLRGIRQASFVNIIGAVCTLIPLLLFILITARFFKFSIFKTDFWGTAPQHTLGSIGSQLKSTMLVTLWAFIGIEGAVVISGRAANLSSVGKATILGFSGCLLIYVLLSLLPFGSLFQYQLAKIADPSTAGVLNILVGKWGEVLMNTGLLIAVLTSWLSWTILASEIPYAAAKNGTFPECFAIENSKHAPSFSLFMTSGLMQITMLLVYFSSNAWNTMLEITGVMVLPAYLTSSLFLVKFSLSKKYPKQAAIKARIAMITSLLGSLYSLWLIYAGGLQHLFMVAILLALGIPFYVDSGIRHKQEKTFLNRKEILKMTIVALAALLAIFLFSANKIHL

For the compound `N=C(N)NCCC[C@H](N)C(=O)O` [L-arginine], the “uptake of L-[2,3,4,5-3H]arginine by E. coli DEG0147 cells, filtration” value is “cells expressing D/UW-3 strain aaxBC genes showed significantly enhanced uptake” in test [1] and “A significant difference in samples expressing C. pneumoniae aaxBC (relative to pBAD/HisA)” at C. pneumoniae AaxC.
